# ChEMBL document CHEMBL1201862, “PubChem BioAssay data set” (2004)
# Active and inactive are the calls of the source.
# Legend:
# [1] = biological target: 26S proteasome non-ATPase regulatory subunit 14 (Homo sapiens, UniProt O00487); assay: inhibition of proteasome subunit RPN11 – biochemical, fluorescence polarization, uHTS hits, confirmation (AID 602368); assay type: functional
# [2] = biological target: 72 kDa type IV collagenase (Homo sapiens, UniProt P08253); assay: Dose Response validation of uHTS RPN11 inhibitor hits using a MMP-2 Fluorescence assay.; assay type: functional
# 72 kDa type IV collagenase, sequence (P08253 whole entry): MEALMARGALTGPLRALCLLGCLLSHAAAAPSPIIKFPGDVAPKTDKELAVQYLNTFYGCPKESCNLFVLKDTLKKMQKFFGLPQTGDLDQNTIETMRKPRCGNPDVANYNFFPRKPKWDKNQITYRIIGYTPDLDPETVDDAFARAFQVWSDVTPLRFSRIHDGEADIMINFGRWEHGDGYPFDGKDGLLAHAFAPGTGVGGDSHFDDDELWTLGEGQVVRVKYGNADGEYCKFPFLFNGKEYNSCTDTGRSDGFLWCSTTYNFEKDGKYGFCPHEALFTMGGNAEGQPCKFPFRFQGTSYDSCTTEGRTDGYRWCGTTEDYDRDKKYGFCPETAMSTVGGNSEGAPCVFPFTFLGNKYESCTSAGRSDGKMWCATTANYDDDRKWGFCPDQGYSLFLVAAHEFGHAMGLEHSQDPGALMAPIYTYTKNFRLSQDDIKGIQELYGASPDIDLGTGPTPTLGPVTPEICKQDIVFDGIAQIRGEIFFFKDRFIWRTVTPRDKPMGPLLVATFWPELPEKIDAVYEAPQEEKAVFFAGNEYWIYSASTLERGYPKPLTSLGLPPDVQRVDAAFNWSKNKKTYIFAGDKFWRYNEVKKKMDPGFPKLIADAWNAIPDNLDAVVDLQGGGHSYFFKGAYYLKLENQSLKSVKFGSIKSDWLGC
# [3] = biological target: Nonstructural protein 1 (Influenza A virus, UniProt Q194T2); assay type: functional, Influenza A virus (A/California/07/2009(H1N1))
# Nonstructural protein 1, sequence (Q194T2 whole entry): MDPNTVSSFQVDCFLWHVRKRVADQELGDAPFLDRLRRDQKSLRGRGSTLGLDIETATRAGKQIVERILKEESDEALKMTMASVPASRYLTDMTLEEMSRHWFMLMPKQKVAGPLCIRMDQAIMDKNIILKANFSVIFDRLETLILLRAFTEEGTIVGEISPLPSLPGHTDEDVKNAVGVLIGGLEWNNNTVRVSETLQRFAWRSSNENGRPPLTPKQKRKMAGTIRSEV
# [4] = biological target: Prothrombin (Bos taurus, UniProt P00735); assay: thrombin inhibition, dose response, biochemical, fluorescence polarization, uHTS hits (AID 602369); assay type: functional
# [5] = biological target: T1, Aminopeptidase N (Plasmodium falciparum FcB1/Columbia, UniProt O96935); assay: P. falciparum M1AAP inhibitors, biochemical, fluorogenic H-Leu-NHMec substrate, 1536-well (AID 1445); set-up: species or system Plasmodium falciparum 3D7, 3D7
# T1 sequence (O96935 whole entry): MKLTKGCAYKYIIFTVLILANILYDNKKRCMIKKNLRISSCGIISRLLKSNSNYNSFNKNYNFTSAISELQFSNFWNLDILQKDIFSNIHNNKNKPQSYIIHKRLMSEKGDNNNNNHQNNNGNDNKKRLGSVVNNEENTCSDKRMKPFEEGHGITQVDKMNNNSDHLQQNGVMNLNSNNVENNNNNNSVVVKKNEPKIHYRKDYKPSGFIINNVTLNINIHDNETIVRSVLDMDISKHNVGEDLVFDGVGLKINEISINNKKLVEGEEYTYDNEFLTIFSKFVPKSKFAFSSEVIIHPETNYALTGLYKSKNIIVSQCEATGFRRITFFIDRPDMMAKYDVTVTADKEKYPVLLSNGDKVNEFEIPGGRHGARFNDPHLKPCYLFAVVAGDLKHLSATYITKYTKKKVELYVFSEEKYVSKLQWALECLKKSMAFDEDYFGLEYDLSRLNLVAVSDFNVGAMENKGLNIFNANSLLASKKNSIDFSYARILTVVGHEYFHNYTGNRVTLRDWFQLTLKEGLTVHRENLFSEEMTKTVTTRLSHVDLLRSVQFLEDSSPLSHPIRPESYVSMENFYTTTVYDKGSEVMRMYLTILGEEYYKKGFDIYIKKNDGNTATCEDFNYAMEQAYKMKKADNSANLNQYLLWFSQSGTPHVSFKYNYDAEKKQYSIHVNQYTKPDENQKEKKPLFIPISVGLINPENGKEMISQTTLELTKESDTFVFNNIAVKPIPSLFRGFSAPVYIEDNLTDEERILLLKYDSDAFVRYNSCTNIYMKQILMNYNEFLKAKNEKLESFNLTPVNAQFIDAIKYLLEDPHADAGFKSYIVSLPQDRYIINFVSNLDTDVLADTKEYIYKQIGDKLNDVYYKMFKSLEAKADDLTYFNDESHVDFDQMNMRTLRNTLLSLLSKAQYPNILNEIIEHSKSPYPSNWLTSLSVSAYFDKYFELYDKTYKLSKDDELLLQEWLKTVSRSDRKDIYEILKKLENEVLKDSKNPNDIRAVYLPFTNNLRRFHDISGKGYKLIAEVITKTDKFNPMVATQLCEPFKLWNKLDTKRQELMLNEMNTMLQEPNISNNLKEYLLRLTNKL
# [6] = biological target: T2, Hexokinase HKDC1 (Homo sapiens, UniProt Q2TB90); assay: HKDC1 hexokinase inhibitors, dose response, biochemical, W721R variant (AID 504729); assay type: functional
# T2 sequence (Q2TB90 whole entry): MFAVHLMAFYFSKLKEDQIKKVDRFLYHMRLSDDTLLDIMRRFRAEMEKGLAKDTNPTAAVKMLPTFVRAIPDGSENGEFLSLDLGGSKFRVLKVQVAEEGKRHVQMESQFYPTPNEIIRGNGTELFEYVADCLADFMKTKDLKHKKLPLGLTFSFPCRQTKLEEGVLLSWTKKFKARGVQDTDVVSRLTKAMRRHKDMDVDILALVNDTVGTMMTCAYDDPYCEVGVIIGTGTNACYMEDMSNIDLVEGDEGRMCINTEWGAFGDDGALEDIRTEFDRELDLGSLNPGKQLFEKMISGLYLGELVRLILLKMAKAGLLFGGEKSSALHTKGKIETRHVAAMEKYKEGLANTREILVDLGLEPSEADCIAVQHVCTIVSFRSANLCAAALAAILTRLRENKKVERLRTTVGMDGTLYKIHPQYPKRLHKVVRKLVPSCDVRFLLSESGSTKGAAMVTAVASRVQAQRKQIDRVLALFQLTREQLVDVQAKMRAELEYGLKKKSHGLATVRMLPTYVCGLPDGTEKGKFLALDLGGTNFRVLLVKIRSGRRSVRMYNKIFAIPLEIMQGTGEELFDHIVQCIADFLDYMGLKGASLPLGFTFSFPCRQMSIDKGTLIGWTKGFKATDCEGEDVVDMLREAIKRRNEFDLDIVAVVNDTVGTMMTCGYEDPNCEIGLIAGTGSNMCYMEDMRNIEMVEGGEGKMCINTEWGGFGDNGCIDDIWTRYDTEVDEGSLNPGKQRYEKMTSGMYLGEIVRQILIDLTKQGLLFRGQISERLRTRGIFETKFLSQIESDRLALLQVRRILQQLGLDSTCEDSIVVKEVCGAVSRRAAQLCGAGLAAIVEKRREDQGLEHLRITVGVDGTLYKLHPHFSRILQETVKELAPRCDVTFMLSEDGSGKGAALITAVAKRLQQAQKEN
# [7] = biological target: FAD-linked sulfhydryl oxidase ALR (Homo sapiens, UniProt P55789); assay: inhibitors of human ALR sulfhydryl oxidase, dose response, biochemical, H2O2 detection, luminescence, cherry-pick (AID 493248)
# FAD-linked sulfhydryl oxidase ALR, sequence (P55789 whole entry): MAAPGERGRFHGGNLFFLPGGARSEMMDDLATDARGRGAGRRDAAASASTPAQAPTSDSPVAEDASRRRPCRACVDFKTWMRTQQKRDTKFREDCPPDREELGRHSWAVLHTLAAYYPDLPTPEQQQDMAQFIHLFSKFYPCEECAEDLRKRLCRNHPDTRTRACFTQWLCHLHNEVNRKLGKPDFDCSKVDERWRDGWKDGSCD
# [8] = tested on: INS1; assay: beta cell apoptosis inhibitors, cytokine rescue, dose response, luminescence, retest (AID 449756); assay type: functional, cell-based; details: Rattus norvegicus;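 further: cell death triggered by IL-1 beta plus TNF-alpha plus IFN-gamma mixture; protective hits raise ATP signal compared with cytokine alone wells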
# [9] = Luminescence Cell-Based Dose Retest to Confirm Inhibitors of Cancer Stem Cells. [Related pubchem assays (depositor defined):AID2717, AID2721]; assay type: functional; details: Homo sapiens
# [10] = biological target: Trypsin (Sus scrofa, UniProt P00761); assay: porcine trypsin inhibitors, dose response, selectivity assay for Rce1 protease inhibitor project, biochemical, quenched peptide fluorescence, cherry-pick (AID 488789)
# Trypsin, sequence (P00761 whole entry): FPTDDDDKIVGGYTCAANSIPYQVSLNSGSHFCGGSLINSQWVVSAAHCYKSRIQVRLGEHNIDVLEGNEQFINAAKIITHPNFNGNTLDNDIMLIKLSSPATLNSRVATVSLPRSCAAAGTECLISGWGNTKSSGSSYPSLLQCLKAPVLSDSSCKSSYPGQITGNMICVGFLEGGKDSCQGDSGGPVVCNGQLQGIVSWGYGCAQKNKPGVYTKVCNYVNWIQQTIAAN
# [11] = biological target: T3, CAAX prenyl protease 2 (Homo sapiens, UniProt Q9Y256); assay: human Rce1 protease inhibitors, dose response, biochemical, yeast membranes, quenched-peptide fluorescence, cherry-pick (AID 588849)
# T3 sequence (Q9Y256 whole entry): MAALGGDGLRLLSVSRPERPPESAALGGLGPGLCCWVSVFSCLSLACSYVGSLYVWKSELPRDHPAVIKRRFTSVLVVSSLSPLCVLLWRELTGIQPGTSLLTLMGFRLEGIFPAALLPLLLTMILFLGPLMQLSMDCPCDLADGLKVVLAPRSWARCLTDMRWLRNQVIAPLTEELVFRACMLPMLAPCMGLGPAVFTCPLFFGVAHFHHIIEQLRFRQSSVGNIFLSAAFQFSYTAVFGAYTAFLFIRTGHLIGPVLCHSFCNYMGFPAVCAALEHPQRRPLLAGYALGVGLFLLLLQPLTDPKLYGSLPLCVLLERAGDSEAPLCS
# [12] = tested on: Vero; assay: Vero E6 cell cytotoxicity, SAR follow-up, cytotoxicity control for West Nile virus antiviral project, synthesized analogs (AID 2244); assay type: functional; details: Chlorocebus sabaeus
# [13] = biological target: Glucose-6-phosphate 1-dehydrogenase (Homo sapiens, UniProt P11413); assay: human G6PD enzyme inhibitors, dose response, selectivity assay for P. falciparum G6PD inhibitor project, biochemical, fluorescence (AID 504792); assay type: functional
# Glucose-6-phosphate 1-dehydrogenase, sequence (P11413 whole entry): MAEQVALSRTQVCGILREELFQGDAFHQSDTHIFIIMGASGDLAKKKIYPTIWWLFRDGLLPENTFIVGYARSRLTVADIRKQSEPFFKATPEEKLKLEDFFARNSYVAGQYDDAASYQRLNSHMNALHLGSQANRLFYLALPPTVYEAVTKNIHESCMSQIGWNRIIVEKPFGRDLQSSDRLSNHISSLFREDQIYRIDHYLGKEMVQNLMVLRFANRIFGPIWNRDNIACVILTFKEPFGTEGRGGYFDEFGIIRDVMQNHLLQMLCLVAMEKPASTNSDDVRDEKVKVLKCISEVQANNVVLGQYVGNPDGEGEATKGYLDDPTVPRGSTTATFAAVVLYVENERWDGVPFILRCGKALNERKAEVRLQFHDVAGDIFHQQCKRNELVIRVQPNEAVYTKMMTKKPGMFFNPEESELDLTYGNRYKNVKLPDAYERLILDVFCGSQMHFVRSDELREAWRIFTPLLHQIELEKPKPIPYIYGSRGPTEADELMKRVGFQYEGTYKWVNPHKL
# [14] = biological target: T4, Short transient receptor potential channel 4 (Mus musculus, UniProt Q9QUQ5); assay: mouse TRPC4 channel inhibitors, dose response, cell-based, HEK293 TRPC4/mu-opioid, Fluo-4 calcium (AID 434942); assay type: functional;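 further: potency of inhibitors blocking the TRPC4 calcium response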
# T4 sequence (Q9QUQ5 whole entry): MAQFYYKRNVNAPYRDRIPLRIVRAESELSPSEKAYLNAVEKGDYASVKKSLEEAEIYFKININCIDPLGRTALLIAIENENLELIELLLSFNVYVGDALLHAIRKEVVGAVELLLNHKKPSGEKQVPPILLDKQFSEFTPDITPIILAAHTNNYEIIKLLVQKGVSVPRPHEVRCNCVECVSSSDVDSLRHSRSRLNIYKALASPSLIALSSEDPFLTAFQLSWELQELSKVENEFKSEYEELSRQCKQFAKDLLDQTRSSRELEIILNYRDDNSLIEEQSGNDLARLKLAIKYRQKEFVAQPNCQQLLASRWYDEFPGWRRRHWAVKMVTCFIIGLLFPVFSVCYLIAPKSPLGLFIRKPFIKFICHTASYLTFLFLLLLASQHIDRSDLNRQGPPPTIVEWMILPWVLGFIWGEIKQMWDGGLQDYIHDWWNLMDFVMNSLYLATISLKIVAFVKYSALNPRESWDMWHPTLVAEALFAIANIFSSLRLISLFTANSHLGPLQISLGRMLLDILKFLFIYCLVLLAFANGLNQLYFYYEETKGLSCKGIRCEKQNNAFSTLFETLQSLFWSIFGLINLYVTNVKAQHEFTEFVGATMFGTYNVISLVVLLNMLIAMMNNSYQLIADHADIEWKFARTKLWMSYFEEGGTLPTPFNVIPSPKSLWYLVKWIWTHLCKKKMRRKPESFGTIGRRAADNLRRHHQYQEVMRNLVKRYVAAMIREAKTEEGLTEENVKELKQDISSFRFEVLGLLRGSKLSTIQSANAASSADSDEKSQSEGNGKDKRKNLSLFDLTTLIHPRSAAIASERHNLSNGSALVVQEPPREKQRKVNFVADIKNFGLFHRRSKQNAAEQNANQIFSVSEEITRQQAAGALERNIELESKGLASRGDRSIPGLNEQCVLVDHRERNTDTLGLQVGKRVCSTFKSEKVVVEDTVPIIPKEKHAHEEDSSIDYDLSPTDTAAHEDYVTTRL
# [15] = C. albicans growth with fluconazole, confirmation, fluorescence, retest (AID 2467); assay type: functional, cell-based
# [16] = HepG2 cell cytotoxicity, dose response, cytotoxicity control for non-replicating M. tuberculosis project (AID 489018); assay type: functional; details: Mycobacterium tuberculosis
# [17] = Vero E6 cell cytotoxicity, dose response, cytotoxicity control for non-replicating M. tuberculosis project, secondary assay (AID 492998); assay type: functional, VeroE6; details: Vero C1008
# [18] = NIH-3T3 fibroblast cytotoxicity, dose response, cytotoxicity control, cell-based, fluorescence, Alamar Blue, secondary assay (AID 2327); assay type: functional;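 further: NIH-3T3 mouse fibroblasts cultured with fluconazole at 8 µg/mL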
# [19] = cells; assay type: functional, cell-based
# [20] = cells; assay type: functional, cell-based; remark: listed apart in the source
# [21] = biological target: Albumin (Bos taurus, UniProt P02769); assay: Counterscreen for inhibitors of T-cell receptor (TCR)-CD3 interaction: Fluorescence-based biochemical high throughput dose response assay to identify inhibitors of T-cell receptor (TCR)-CD3 interaction using a TAMRA-labeled BSA probe.; assay type: functional
# Albumin, sequence (P02769 whole entry): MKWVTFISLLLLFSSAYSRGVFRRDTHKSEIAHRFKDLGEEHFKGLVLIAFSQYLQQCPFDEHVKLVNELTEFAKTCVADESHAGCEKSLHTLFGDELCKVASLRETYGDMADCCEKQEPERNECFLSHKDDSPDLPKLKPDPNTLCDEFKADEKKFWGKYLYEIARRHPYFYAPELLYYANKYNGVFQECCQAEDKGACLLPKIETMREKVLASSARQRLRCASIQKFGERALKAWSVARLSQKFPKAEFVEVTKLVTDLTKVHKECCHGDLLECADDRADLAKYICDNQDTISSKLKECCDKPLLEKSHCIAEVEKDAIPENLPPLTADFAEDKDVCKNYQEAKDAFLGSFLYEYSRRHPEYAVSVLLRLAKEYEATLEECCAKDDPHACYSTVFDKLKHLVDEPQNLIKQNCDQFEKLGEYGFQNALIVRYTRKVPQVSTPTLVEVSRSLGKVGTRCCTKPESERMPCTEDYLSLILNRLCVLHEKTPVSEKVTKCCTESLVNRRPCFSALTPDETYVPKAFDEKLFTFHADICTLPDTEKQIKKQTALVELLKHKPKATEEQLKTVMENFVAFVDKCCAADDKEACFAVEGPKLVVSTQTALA
# [22] = THP-1 cell cytotoxicity, dose response, cytotoxicity control for non-replicating M. tuberculosis project (AID 489025); assay type: functional
# [23] = tested on: HeLa; assay: HeLa cell cytotoxicity, dose response, cytotoxicity control, 24 h, cherry-picked samples (AID 504726); assay type: functional, cell-based; details: Homo sapiens;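 further: potency for cytotoxicity as loss of luminescence signal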
# 26S proteasome non-ATPase regulatory subunit 14, sequence (O00487 whole entry): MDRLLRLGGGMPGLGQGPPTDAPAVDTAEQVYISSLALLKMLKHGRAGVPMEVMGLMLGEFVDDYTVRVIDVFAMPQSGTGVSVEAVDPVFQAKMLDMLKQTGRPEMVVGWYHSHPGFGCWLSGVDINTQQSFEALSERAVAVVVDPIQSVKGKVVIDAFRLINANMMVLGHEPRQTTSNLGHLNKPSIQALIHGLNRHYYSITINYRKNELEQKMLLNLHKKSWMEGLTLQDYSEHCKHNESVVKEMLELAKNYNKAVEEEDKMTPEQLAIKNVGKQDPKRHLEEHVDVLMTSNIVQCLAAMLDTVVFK
smiles,measurement,setting,value
Cc1cc(O)nc(NN/C=C2/C(=O)N(c3ccccc3)C(=O)c3ccccc32)n1,IC50,[1],18.4 µM (active)
same,IC50,[2],> 100 µM (inactive)
same,IC50,[3],12 µM (active)
same,IC50,[4],37.2 µM (active)
same,IC50,[5],47 µM (active)
O=[N+]([O-])c1ccc(NN=Cc2ccc(O)cc2O)nc1,IC50,[6],6.23 µM (active)
Cc1ccc(NNC(=O)c2ccno2)cc1Cl,AC50,[7],0.223 µM (active)
same,AC50,[8],7.1 µM (active)
same,AC50,[9],2.34 µM (active)
COc1cc(Cn2c(N)c(C(=O)NCc3ccco3)c3nc4ccccc4nc32)cc(OC)c1OC,AC50,[10],22.3 µM (active)
same,AC50,[11],3.86 µM (active)
COc1ccc(-c2csc(NC(=O)c3ccc(Cl)cc3)n2)cc1,CC50,[12],> 40 µM (active)
COc1cc(/C=C2\SC(c3ccc(C)cc3)=NC2=O)ccc1O,IC50,[6],38.3 µM (inactive)
same,IC50,[13],> 80 µM (inactive)
COc1ccc(-c2csc(NC(=O)Cc3cccc4ccccc34)c2C(=O)O)cc1,EC50,[14],7.5 µM (active)
same,IC50,[5],42.3 µM (active)
O=C(N/N=C/c1cc(Br)cc(Cl)c1O)c1ccc2c(c1)OCO2,IC50,[1],15.5 µM (active)
same,EC50,[15],1.03 µM (active)
same,CC50,[16],16.1 µM (active)
same,CC50,[17],7.35 µM (active)
same,IC50,[2],65.4 µM (active)
same,EC50,[18],> 150 µM (inactive)
same,AC50,[8],4.16 µM (active)
same,EC50,[19],22.1 µM (active)
same,EC50,[20],> 350 µM (not active)
same,IC50,[4],33.8 µM (active)
same,IC50,[21],> 94.1 µM (inactive)
same,CC50,[22],1.95 µM (active)
O=C(Nc1nc(-c2ccc(Cl)cc2)cs1)c1cccc(Cl)c1,CC50,[12],< 0.08 µM (active)
COc1ccc(/C=N/Nc2ccccn2)cc1OC,AC50,[7],0.771 µM (active)
COc1ccc(C2c3ccc(O)cc3Oc3ncn(CCCO)c(=N)c32)cc1OC (configuration not stated),AC50,[23],> 350 µM (inactive)
Cc1ccc2nc(C)cc(N/N=C/c3cccc(O)c3)c2c1,AC50,[7],1.02 µM (active)
